In patent US11021467B2, “Phosphatidylinositol 3-kinase inhibitors” (Gilead Sciences, Inc., priority 2014, dated 2021):

Legend:
Assay in all cases: TR-FRET enzymatic activity assay against PI3K isoforms
Format in all cases: biochemical
[1] = target: PI3Kδ (Homo sapiens (Human), UniProt O00329); details: 2×Km ATP, 30 minutes at 25° C.
Text: (§1) The compounds of formula (I) were characterized for their enzymatic activity against the PI3K isoforms. […] TR-FRET monitored the formation of 3,4,5-inositol triphosphate molecule that competed with fluorescently labeled PIP3 for binding to the GRP-1 pleckstrin homology domain protein.

[2] = target: PI3Kβ (Homo sapiens (Human), UniProt P42338); details: PI3Kβ, TR-FRET, 2×Km ATP, 30 minutes at 25° C.
Chain of PI3Kβ (P42338 whole entry): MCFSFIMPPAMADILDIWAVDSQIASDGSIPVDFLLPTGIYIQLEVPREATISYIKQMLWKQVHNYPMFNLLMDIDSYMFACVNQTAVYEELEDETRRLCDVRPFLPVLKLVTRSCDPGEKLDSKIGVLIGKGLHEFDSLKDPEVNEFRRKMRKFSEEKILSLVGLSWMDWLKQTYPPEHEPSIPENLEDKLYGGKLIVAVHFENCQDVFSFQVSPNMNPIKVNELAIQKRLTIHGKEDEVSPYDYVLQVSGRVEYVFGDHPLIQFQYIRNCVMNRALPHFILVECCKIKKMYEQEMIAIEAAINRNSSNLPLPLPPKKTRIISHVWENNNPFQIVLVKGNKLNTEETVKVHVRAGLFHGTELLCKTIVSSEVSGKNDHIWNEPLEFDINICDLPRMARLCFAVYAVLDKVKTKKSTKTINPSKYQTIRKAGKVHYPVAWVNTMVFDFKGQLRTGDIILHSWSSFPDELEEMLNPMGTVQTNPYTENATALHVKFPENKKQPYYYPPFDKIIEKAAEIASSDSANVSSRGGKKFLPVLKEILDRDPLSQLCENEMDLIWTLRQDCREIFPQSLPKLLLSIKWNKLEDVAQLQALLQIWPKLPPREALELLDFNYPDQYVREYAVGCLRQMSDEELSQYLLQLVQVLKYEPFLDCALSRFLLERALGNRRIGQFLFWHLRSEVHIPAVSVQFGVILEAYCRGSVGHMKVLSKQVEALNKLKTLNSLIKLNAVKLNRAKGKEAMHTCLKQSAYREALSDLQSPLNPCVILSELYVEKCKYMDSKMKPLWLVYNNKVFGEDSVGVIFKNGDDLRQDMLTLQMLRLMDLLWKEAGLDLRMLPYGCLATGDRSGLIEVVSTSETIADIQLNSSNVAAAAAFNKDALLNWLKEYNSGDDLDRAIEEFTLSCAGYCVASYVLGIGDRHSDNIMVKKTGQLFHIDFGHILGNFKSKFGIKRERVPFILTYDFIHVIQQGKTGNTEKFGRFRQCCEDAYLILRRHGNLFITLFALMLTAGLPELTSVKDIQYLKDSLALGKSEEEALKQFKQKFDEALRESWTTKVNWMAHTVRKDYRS
Chain of PI3Kβ (P27986 whole entry partner): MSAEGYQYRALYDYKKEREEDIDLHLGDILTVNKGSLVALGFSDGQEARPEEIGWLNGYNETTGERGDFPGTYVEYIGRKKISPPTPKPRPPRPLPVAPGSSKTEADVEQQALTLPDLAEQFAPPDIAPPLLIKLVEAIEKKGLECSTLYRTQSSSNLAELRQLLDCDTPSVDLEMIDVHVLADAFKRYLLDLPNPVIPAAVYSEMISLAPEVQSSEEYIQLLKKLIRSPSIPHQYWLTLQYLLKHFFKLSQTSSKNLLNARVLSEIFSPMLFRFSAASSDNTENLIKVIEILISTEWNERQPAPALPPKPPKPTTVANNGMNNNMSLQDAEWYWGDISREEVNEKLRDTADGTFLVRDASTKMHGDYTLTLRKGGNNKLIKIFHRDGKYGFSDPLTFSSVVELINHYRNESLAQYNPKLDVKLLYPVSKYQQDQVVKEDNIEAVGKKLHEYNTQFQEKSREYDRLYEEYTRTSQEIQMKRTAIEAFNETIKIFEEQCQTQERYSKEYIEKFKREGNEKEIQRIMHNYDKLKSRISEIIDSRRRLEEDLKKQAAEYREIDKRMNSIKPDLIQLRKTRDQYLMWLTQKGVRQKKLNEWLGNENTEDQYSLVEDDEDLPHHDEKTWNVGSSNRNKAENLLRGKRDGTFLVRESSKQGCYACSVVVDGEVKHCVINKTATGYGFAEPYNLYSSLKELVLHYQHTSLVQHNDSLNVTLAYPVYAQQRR
Text: as §1

[3] = target: PI3Kγ (Homo sapiens (Human), UniProt P48736); details: 2×Km ATP, 30 minutes at 25° C.
Chain of PI3Kγ (P48736 whole entry): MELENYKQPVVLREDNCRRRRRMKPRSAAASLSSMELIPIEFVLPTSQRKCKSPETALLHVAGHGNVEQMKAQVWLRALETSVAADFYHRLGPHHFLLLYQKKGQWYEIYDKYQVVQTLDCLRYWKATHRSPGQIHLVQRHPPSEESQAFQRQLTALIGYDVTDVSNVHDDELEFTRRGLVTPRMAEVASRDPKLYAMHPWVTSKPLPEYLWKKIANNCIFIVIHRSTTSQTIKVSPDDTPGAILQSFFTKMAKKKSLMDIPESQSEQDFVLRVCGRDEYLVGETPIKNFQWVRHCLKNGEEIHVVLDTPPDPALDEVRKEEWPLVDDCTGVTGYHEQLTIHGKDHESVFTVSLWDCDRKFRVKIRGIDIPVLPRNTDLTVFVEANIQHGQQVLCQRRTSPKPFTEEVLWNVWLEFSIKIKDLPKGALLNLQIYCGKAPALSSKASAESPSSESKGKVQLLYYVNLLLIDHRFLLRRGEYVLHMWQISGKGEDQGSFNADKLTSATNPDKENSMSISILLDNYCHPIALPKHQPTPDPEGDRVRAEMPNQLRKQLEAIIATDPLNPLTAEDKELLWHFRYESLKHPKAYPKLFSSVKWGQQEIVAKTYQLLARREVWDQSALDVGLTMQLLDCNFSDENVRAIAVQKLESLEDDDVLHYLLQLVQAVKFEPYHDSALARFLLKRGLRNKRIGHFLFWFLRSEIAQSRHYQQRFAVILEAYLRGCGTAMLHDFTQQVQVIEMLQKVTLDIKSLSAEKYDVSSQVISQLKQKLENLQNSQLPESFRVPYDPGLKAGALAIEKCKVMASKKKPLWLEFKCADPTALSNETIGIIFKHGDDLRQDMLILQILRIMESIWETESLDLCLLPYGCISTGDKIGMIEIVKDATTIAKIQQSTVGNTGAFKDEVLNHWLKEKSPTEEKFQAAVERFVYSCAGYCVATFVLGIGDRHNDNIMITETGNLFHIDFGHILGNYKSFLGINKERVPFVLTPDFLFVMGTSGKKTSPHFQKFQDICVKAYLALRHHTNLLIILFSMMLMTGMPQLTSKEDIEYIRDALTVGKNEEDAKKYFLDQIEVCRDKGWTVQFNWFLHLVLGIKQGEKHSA
Text: as §1

Chain of PI3Kδ (O00329 whole entry, the tested form may be a part, canonical isoform): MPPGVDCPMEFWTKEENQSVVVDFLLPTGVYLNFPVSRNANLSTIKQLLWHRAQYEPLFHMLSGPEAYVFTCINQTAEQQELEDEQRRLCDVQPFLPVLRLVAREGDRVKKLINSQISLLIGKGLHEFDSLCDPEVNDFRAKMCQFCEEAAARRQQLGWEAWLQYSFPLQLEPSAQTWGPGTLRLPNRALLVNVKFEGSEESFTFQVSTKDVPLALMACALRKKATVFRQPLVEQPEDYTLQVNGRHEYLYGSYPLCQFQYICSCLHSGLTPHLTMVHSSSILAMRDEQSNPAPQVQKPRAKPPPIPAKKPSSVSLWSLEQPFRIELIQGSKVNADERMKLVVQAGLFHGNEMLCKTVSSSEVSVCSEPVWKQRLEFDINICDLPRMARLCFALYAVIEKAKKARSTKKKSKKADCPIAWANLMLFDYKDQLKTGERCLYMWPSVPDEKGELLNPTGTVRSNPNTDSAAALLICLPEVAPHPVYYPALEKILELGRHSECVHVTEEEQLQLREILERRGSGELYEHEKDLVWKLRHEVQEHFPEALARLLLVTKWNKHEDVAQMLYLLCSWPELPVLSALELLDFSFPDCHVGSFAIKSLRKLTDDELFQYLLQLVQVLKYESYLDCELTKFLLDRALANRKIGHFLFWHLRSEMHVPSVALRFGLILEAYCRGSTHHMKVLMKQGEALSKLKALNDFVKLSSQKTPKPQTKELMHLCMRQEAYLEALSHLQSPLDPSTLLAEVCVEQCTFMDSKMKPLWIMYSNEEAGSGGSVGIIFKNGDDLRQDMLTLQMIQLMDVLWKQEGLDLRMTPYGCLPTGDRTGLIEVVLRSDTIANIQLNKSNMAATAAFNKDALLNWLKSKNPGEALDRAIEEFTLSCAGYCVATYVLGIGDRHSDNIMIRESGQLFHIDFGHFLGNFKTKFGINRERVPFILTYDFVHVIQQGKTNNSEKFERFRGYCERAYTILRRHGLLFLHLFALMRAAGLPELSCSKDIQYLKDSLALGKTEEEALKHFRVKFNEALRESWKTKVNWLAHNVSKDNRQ
Chain of PI3Kδ (P27986 whole entry partner, the tested form may be a part, canonical isoform): as the sequence (P27986 whole entry partner) above

| IC50 [1] | IC50 [2] | IC50 [3] | Compound |
| --- | --- | --- | --- |
| 5 nM | 150 nM | 2300 nM | C[C@H](Nc1ncnc(N)c1C#N)c1nc2cccc(Cl)c2c(=O)n1[C@H]1C[C@@H](O)C1 [Compound 82, 4-amino-6-(((S)-1-(5-chloro-3-((1S,3R)-3-hydroxycyclobutyl)-4-oxo-3,4-dihydroquinazolin-2-yl)ethyl)amino)pyrimidine-5-carbonitrile] |
| 6 nM | 180 nM | 2900 nM | C[C@H](Nc1ncnc(N)c1C#N)c1nc2cccc(Cl)c2c(=O)n1CCCO [Compound 83, (S)-4-amino-6-((1-(5-chloro-3-(3-hydroxypropyl)-4-oxo-3,4-dihydroquinazolin-2-yl)ethyl)amino)pyrimidine-5-carbonitrile] |
| 3 nM | 92 nM | 1200 nM | C[C@H](Nc1ncnc(N)c1C#N)c1nc2cccc(Cl)c2c(=O)n1[C@H]1CC[C@H](O)CC1 [Compound 85, (S)-4-amino-6-((1-(5-chloro-3-(4-hydroxycyclohexyl)-4-oxo-3,4-dihydroquinazolin-2-yl)ethyl)amino)pyrimidine-5-carbonitrile] |
| 24 nM | 620 nM | ≥ 10000 nM | C[C@H](Nc1ncnc(N)c1C#N)c1nc2cccc(Cl)c2c(=O)n1[C@H]1C[C@H](N)C1 [Compound 86, (S)-4-amino-6-((1-(3-(3-aminocyclobutyl)-5-chloro-4-oxo-3,4-dihydroquinazolin-2-yl)ethyl)amino)pyrimidine-5-carbonitrile] |
| 4 nM | 150 nM | ≥ 10000 nM | C[C@H](Nc1ncnc(N)c1C#N)c1nc2cccc(Cl)c2c(=O)n1CC1CCNCC1 [Compound 87, (S)-4-amino-6-((1-(5-chloro-4-oxo-3-(piperidin-4-ylmethyl)-3,4-dihydroquinazolin-2-yl)ethyl)amino)pyrimidine-5-carbonitrile] |
| 42 nM | 250 nM | ≥ 10000 nM | C[C@H](Nc1ncnc(N)c1C#N)c1nc2cccc(Cl)c2c(=O)n1CC1CNCCO1 (stereo partly drawn) [Compound 88, 4-amino-6-(((1S)-1-(5-chloro-3-(morpholin-2-ylmethyl)-4-oxo-3,4-dihydroquinazolin-2-yl)ethyl)amino)pyrimidine-5-carbonitrile] |
| 3 nM | 54 nM | ≥ 10000 nM | C[C@H](Nc1ncnc(N)c1C#N)c1nc2cccc(Cl)c2c(=O)n1CC1CCNC1 (stereo partly drawn) [Compound 89, 4-amino-6-(((1S)-1-(5-chloro-4-oxo-3-(pyrrolidin-3-ylmethyl)-3,4-dihydroquinazolin-2-yl)ethyl)amino)pyrimidine-5-carbonitrile] |
| 37 nM | 2800 nM | ≥ 10000 nM | C[C@H](Nc1ncnc(N)c1C#N)c1nc2cccc(Cl)c2c(=O)n1CC1CCCN1 (stereo partly drawn) [Compound 90, 4-amino-6-(((1S)-1-(5-chloro-4-oxo-3-(pyrrolidin-2-ylmethyl)-3,4-dihydroquinazolin-2-yl)ethyl)amino)pyrimidine-5-carbonitrile] |
| 95 nM | 1700 nM | ≥ 10000 nM | C[C@H](Nc1ncnc(N)c1C#N)c1nc2cccc(Cl)c2c(=O)n1CC1CCCCN1 (stereo partly drawn) [Compound 91, 4-amino-6-(((1S)-1-(5-chloro-4-oxo-3-(piperidin-2-ylmethyl)-3,4-dihydroquinazolin-2-yl)ethyl)amino)pyrimidine-5-carbonitrile] |
| 7 nM | 320 nM | ≥ 10000 nM | C[C@H](Nc1ncnc(N)c1C#N)c1nc2cccc(Cl)c2c(=O)n1CC1CCCNC1 (stereo partly drawn) [Compound 92, 4-amino-6-(((1S)-1-(5-chloro-4-oxo-3-(piperidin-3-ylmethyl)-3,4-dihydroquinazolin-2-yl)ethyl)amino)pyrimidine-5-carbonitrile] |
| 9 nM | 820 nM | 8400 nM | COCCCn1c([C@H](C)Nc2ncnc(N)c2C#N)nc2cccc(Cl)c2c1=O [Compound 105, (S)-4-amino-6-((1-(5-chloro-3-(3-methoxypropyl)-4-oxo-3,4-dihydroquinazolin-2-yl)ethyl)amino)pyrimidine-5-carbonitrile] |

Continued, molecule first:

| Compound | IC50 [1] | IC50 [2] | IC50 [3] |
| --- | --- | --- | --- |
| C[C@H](Nc1nc(N)nc(N)c1C#N)c1nc2cccc(Cl)c2c(=O)n1Cc1nc[nH]n1 [Compound 81, (S)-4-((1-(3-((1H-1,2,4-triazol-3-yl)methyl)-5-chloro-4-oxo-3,4-dihydroquinazolin-2-yl)ethyl)amino)-2,6-diaminopyrimidine-5-carbonitrile] | 5 nM | 47 nM | 320 nM |
| CC(CCO)n1c([C@H](C)Nc2ncnc(N)c2C#N)nc2cccc(Cl)c2c1=O (stereo partly drawn) [Compound 84, 4-amino-6-(((1S)-1-(5-chloro-3-(4-hydroxybutan-2-yl)-4-oxo-3,4-dihydroquinazolin-2-yl)ethyl)amino)pyrimidine-5-carbonitrile] | 4 nM | 260 nM | 2900 nM |
| C[C@H](Nc1nc(N)nc(N)c1C#N)c1nc2cccc(Cl)c2c(=O)n1[C@H]1C[C@@H](O)C1 [Compound 93, 2,4-diamino-6-(((S)-1-(5-chloro-3-((cis)-3-hydroxycyclobutyl)-4-oxo-3,4-dihydroquinazolin-2-yl)ethyl)amino)pyrimidine-5-carbonitrile] | 1 nM | 4 nM | 158 nM |
| C[C@H](Nc1nc(N)nc(N)c1Cl)c1nc2cccc(Cl)c2c(=O)n1[C@H]1C[C@@H](O)C1 [Compound 94, 5-chloro-2-((S)-1-((2,6-diamino-5-chloropyrimidin-4-yl)amino)ethyl)-3-((cis)-3-hydroxycyclobutyl)quinazolin-4(3H)-one] | 14 nM | 190 nM | 1590 nM |
| Nc1nc(N)c(Cl)c(N[C@H](c2nc3c(Cl)ccc(Cl)c3c(=O)n2[C@H]2C[C@@H](O)C2)C2CC2)n1 [Compound 95, 5,8-dichloro-2-((S)-cyclopropyl((2,6-diamino-5-chloropyrimidin-4-yl)amino)methyl)-3-((cis)-3-hydroxycyclobutyl)quinazolin-4(3H)-one] | 16 nM | 720 nM | ≥ 10000 nM |
| N#Cc1c(N)nc(N)nc1N[C@H](c1nc2c(Cl)ccc(Cl)c2c(=O)n1[C@H]1C[C@@H](O)C1)C1CC1 [Compound 96, 2,4-diamino-6-(((S)-cyclopropyl(5,8-dichloro-3-((cis)-3-hydroxycyclobutyl)-4-oxo-3,4-dihydroquinazolin-2-yl)methyl)amino)pyrimidine-5-carbonitrile] | 2 nM | 10 nM | 960 nM |
| N#Cc1c(N)nc(N)nc1N[C@H](c1nc2c(Cl)cc(F)cc2c(=O)n1[C@H]1C[C@H](O)C1)C1CC1 [Compound 97, 2,4-diamino-6-(((S)-(8-chloro-6-fluoro-3-((trans)-3-hydroxycyclobutyl)-4-oxo-3,4-dihydroquinazolin-2-yl)(cyclopropyl)methyl)amino)pyrimidine-5-carbonitrile] | 8 nM | 58 nM | 2800 nM |
| C[C@H](Nc1nc(N)nc(N)c1C#N)c1nc2c(Cl)cc(F)cc2c(=O)n1[C@H]1C[C@H](O)C1 [Compound 98, 2,4-diamino-6-(((S)-1-(8-chloro-6-fluoro-3-((trans)-3-hydroxycyclobutyl)-4-oxo-3,4-dihydroquinazolin-2-yl)ethyl)amino)pyrimidine-5-carbonitrile] | 20 nM | 330 nM | 3200 nM |
| C[C@H](Nc1nc(N)nc(N)c1C#N)c1nc2c(Cl)cc(F)cc2c(=O)n1[C@H]1C[C@@H](O)C1 [Compound 99, 2,4-diamino-6-(((S)-1-(8-chloro-6-fluoro-3-((cis)-3-hydroxycyclobutyl)-4-oxo-3,4-dihydroquinazolin-2-yl)ethyl)amino)pyrimidine-5-carbonitrile] | 9 nM | 290 nM | 2400 nM |
| N#Cc1c(N)nc(N)nc1N[C@H](c1nc2c(Cl)ccc(Cl)c2c(=O)n1[C@H]1C[C@H](O)C1)C1CC1 [Compound 100, 2,4-diamino-6-(((S)-cyclopropyl(5,8-dichloro-3-((trans)-3-hydroxycyclobutyl)-4-oxo-3,4-dihydroquinazolin-2-yl)methyl)amino)pyrimidine-5-carbonitrile] | 3 nM | 44 nM | 2900 nM |
| C[C@H](Nc1nc(N)nc(N)c1C#N)c1nc2c(Cl)ccc(Cl)c2c(=O)n1[C@H]1C[C@H](O)C1 [Compound 101, 2,4-diamino-6-(((S)-1-(5,8-dichloro-3-((trans)-3-hydroxycyclobutyl)-4-oxo-3,4-dihydroquinazolin-2-yl)ethyl)amino)pyrimidine-5-carbonitrile] | 12 nM | 140 nM | 3200 nM |
| N#Cc1c(N)nc(N)nc1N[C@H](c1nc2c(Cl)cc(F)cc2c(=O)n1[C@H]1C[C@@H](O)C1)C1CC1 [Compound 102, 2,4-diamino-6-(((S)-(8-chloro-6-fluoro-3-((cis)-3-hydroxycyclobutyl)-4-oxo-3,4-dihydroquinazolin-2-yl)(cyclopropyl)methyl)amino)pyrimidine-5-carbonitrile] | 2 nM | 66 nM | 1100 nM |
| C[C@H](Nc1nc(N)nc(N)c1C#N)c1nc2c(Cl)ccc(Cl)c2c(=O)n1[C@H]1C[C@@H](O)C1 [Compound 103, 2,4-diamino-6-(((S)-1-(5,8-dichloro-3-((cis)-3-hydroxycyclobutyl)-4-oxo-3,4-dihydroquinazolin-2-yl)ethyl)amino)pyrimidine-5-carbonitrile] | 5 nM | 21 nM | 2600 nM |
| C[C@H](Nc1nc(N)nc(N)c1C#N)c1nc2cccc(Cl)c2c(=O)n1CCC#N [Compound 104, (S)-2,4-diamino-6-((1-(5-chloro-3-(2-cyanoethyl)-4-oxo-3,4-dihydroquinazolin-2-yl)ethyl)amino)pyrimidine-5-carbonitrile] | 9 nM | 58 nM | 78 nM |
